Active and inactive are the calls of the source. The calls are words filed in the database; no cut-off is given here.
Tests used:
HCT-116 [1] = experiment: Cytotoxicity against human HCT116 cells assessed as inhibition of cell growth; type: functional, cell-based
[2] = Selectivity index, ratio of IC50 for human CRL1790 cells assessed as inhibition of cell growth to IC50 for human HCT116 cells assessed as inhibition of cell growth; type: toxicity; settings: CRL1790 cells versus HCT116 cells, read-out: Ratio IC50
CCD-841CoN = experiment: Cytotoxicity against human CRL1790 cells assessed as inhibition of cell growth; type: cell-based
HCT-116 [3] = experiment: Potency index, ratio of 5-fluorouracil IC50 to test compound IC50 for human HCT116 cells assessed as inhibition of cell growth; type: functional
HCT-116 [4] = experiment: Cell cycle arrest in human HCT116 cells assessed as accumulation at G0/G1 phase at 10.96 uM (reference value: 46.8 %); type: functional
HCT-116 [5] = experiment: Induction of mitochondrial membrane potential loss in human HCT116 cells at IC50; type: functional, cell-based
HCT-116 [6] = experiment: Induction of ROS generation in human HCT116 cells assessed as increase in ROS level at IC50; type: functional, cell-based
HCT-116 [7] = experiment: Cell cycle arrest in human HCT116 cells assessed as accumulation of diploid cells at 10.96 uM (reference value: 2.5 %); type: functional
HCT-116 [8] = experiment: Cell cycle arrest in human HCT116 cells assessed as accumulation at S phase at 10.96 uM (reference value: 18.4 %); type: functional
HCT-116 [9] = experiment: Induction of apoptosis in human HCT116 cells assessed as apoptotic cells at 10.96 uM (reference value: 2.4 %); type: functional
HCT-116 [10] = experiment: Induction of ROS generation in human HCT116 cells assessed as increase in ROS level at 2 times IC50; type: functional, cell-based
HCT-116 [11] = experiment: Induction of mitochondrial membrane potential loss in human HCT116 cells at 2 times IC50; type: functional, cell-based
HCT-116 [12] = experiment: Cell cycle arrest in human HCT116 cells assessed as accumulation at G2/M phase at 10.96 uM (reference value: 29.4 %); type: functional
HCT-116 [13] = experiment: Induction of apoptosis in human HCT116 cells assessed as apoptotic cells at 0.03 uM (reference value: 2.4 %); type: functional
HCT-116 [14] = experiment: Cell cycle arrest in human HCT116 cells assessed as accumulation at G0/G1 phase at 0.03 uM (reference value: 46.8 %); type: functional
HCT-116 [15] = experiment: Cell cycle arrest in human HCT116 cells assessed as accumulation of diploid cells at 0.03 uM (reference value: 2.5 %); type: functional
HCT-116 [16] = experiment: Cell cycle arrest in human HCT116 cells assessed as accumulation at S phase at 0.03 uM (reference value: 18.4 %); type: functional
HCT-116 [17] = experiment: Cell cycle arrest in human HCT116 cells assessed as accumulation at G2/M phase at 0.03 uM (reference value: 29.4 %); type: functional
HCT-116 [18] = experiment: Cell cycle arrest in human HCT116 cells assessed as accumulation at S phase at 0.28 uM (reference value: 18.4 %); type: functional
HCT-116 [19] = experiment: Cell cycle arrest in human HCT116 cells assessed as accumulation of diploid cells at 0.28 uM (reference value: 2.5 %); type: functional
HCT-116 [20] = experiment: Induction of apoptosis in human HCT116 cells assessed as apoptotic cells at 0.28 uM (reference value: 2.4 %); type: functional
HCT-116 [21] = experiment: Cell cycle arrest in human HCT116 cells assessed as accumulation at G0/G1 phase at 10.96 uM (reference value: 0.28 %); type: functional
HCT-116 [22] = experiment: Cell cycle arrest in human HCT116 cells assessed as accumulation at G2/M phase at 0.28 uM (reference value: 29.4 %); type: functional
HCT-116 [23] = experiment: Cell cycle arrest in human HCT116 cells assessed as accumulation of diploid cells at 0.23 uM (reference value: 2.5 %); type: functional
[24] = Stability of compound in mixture of DMSO and phosphate buffer at 37 degree C incubated for 48 hrs by H-NMR spectroscopy; type: physicochemical
HCT-116 [25] = experiment: Cell cycle arrest in human HCT116 cells assessed as accumulation at G0/G1 phase at 0.23 uM (reference value: 46.8 %); type: functional
HCT-116 [26] = experiment: Induction of apoptosis in human HCT116 cells assessed as apoptotic cells at 0.23 uM (reference value: 2.4 %); type: functional
HCT-116 [27] = experiment: Cell cycle arrest in human HCT116 cells assessed as accumulation at S phase at 0.23 uM (reference value: 18.4 %); type: functional
HCT-116 [28] = experiment: Cell cycle arrest in human HCT116 cells assessed as accumulation at G2/M phase at 0.23 uM (reference value: 29.4 %); type: functional

Compound: COc1ccc(/C=C2\CN(C(=O)C(Cl)Cl)C/C(=C\c3ccc(OC)c(OC)c3)C2=O)cc1OC
- IC50 (HCT-116 [1]): 0.11 µM
- selectivity ratio [2]: 96.4
- IC50 (CCD-841CoN): 10.6 µM

Compound: COc1ccc(/C=C2\CN(C(=O)C(Cl)Cl)C/C(=C\c3ccc(OC)cc3)C2=O)cc1
- IC50 (HCT-116 [1]): 0.27 µM
- selectivity ratio [2]: 48.9
- IC50 (CCD-841CoN): 13.2 µM

Compound: COc1cc(/C=C2\CN(C(=O)C(Cl)Cl)C/C(=C\c3cc(OC)c(OC)c(OC)c3)C2=O)cc(OC)c1OC
- IC50 (HCT-116 [1]): 0.04 µM
- selectivity ratio [2]: 378
- IC50 (CCD-841CoN): 15.1 µM
- Ratio IC50 (HCT-116 [3]): >100

Compound: O=C([O-])C(Cl)Cl.[Na+] [SODIUM DICHLOROACETATE]
- IC50 (HCT-116 [1]): 14.8 µM
- selectivity ratio [2]: 0.85
- IC50 (CCD-841CoN): 12.5 µM

Compound: O=C1/C(=C/c2ccc(F)cc2)CN(C(=O)C(Cl)Cl)C/C1=C\c1ccc(F)cc1
- IC50 (HCT-116 [1]): 0.05 µM
- selectivity ratio [2]: 292
- IC50 (CCD-841CoN): 14.6 µM

Compound: CN(C)c1ccc(/C=C2\CN(C(=O)C(Cl)Cl)C/C(=C\c3ccc(N(C)C)cc3)C2=O)cc1
- Activity (HCT-116 [4]): 42.9%
- Activity (HCT-116 [5]): inactive
- Activity (HCT-116 [6]): Active
- Activity (HCT-116 [7]): 1.4%
- Activity (HCT-116 [8]): 20.8%
- IC50 (HCT-116 [1]): 13.3 µM
- Activity (HCT-116 [9]): 4.6%
- selectivity ratio [2]: 0.69
- Activity (HCT-116 [10]): Active
- IC50 (CCD-841CoN): 9.12 µM
- Activity (HCT-116 [11]): inactive
- Activity (HCT-116 [12]): 29.9%

Compound: Cc1ccc(/C=C2\CN(C(=O)C(Cl)Cl)C/C(=C\c3ccc(C)cc3)C2=O)cc1
- IC50 (HCT-116 [1]): 0.03 µM
- selectivity ratio [2]: 540
- IC50 (CCD-841CoN): 16.2 µM
- Ratio IC50 (HCT-116 [3]): >100

Compound: O=C1/C(=C/c2ccc([N+](=O)[O-])cc2)CN(C(=O)C(Cl)Cl)C/C1=C\c1ccc([N+](=O)[O-])cc1
- Activity (HCT-116 [13]): 3.6%
- Activity (HCT-116 [5]): Active
- Activity (HCT-116 [6]): Active
- Activity (HCT-116 [14]): 44.4%
- IC50 (HCT-116 [1]): 0.03 µM
- Activity (HCT-116 [15]): 2.2%
- selectivity ratio [2]: 370
- Activity (HCT-116 [10]): Active
- IC50 (CCD-841CoN): 11.1 µM
- Activity (HCT-116 [11]): Active
- Activity (HCT-116 [16]): 21.4%
- Activity (HCT-116 [17]): 27.8%
- Ratio IC50 (HCT-116 [3]): >100

Compound: O=C1/C(=C/c2ccc3c(c2)OCO3)CN(C(=O)C(Cl)Cl)C/C1=C\c1ccc2c(c1)OCO2
- IC50 (HCT-116 [1]): 0.32 µM
- selectivity ratio [2]: 65.9
- IC50 (CCD-841CoN): 21.1 µM

Compound: O=C1/C(=C/c2ccc(F)c(F)c2)CN(C(=O)C(Cl)Cl)C/C1=C\c1ccc(F)c(F)c1
- IC50 (HCT-116 [1]): 0.06 µM
- selectivity ratio [2]: 185
- IC50 (CCD-841CoN): 11.1 µM

Compound: O=c1[nH]cc(F)c(=O)[nH]1 [FLUOROURACIL]
- Activity (HCT-116 [5]): Active
- Activity (HCT-116 [6]): Active
- IC50 (HCT-116 [1]): 4.02 µM
- selectivity ratio [2]: 4.65
- Activity (HCT-116 [10]): Active
- IC50 (CCD-841CoN): 18.7 µM
- Activity (HCT-116 [11]): Active

Compound: CC(C)(C)C(=O)N1C/C(=C\c2ccc(OC(=O)C(Cl)Cl)cc2)C(=O)/C(=C/c2ccc(OC(=O)C(Cl)Cl)cc2)C1
- IC50 (HCT-116 [1]): 0.23 µM
- selectivity ratio [2]: 71.3
- IC50 (CCD-841CoN): 16.4 µM

Compound: CC(=O)N1C/C(=C\c2ccccc2)C(=O)/C(=C/c2ccccc2)C1
- Activity (HCT-116 [5]): Active
- Activity (HCT-116 [18]): 18.3%
- Activity (HCT-116 [6]): Active
- Activity (HCT-116 [19]): 2.4%
- Activity (HCT-116 [20]): 3.5%
- IC50 (HCT-116 [1]): 0.28 µM
- Activity (HCT-116 [21]): 45.5%
- selectivity ratio [2]: 74.3
- Activity (HCT-116 [10]): Active
- IC50 (CCD-841CoN): 20.8 µM
- Activity (HCT-116 [11]): Active
- Activity (HCT-116 [22]): 30%

Compound: O=C1/C(=C/c2ccc(Cl)c(Cl)c2)CN(C(=O)C(Cl)Cl)C/C1=C\c1ccc(Cl)c(Cl)c1
- IC50 (HCT-116 [1]): 0.04 µM
- selectivity ratio [2]: 305
- IC50 (CCD-841CoN): 12.2 µM
- Ratio IC50 (HCT-116 [3]): >100

Compound: O=C1/C(=C/c2ccc(O)cc2)CN(C(=O)C(Cl)Cl)C/C1=C\c1ccc(O)cc1
- IC50 (HCT-116 [1]): 3.85 µM
- selectivity ratio [2]: 3.58
- IC50 (CCD-841CoN): 13.8 µM

Compound: O=C1/C(=C/c2ccccc2)CN(C(=O)C(Cl)Cl)C/C1=C\c1ccccc1
- Activity (HCT-116 [23]): 1.8%
- Activity (HCT-116 [5]): Active
- Activity (HCT-116 [6]): Active
- Stability [24]: Stable
- IC50 (HCT-116 [1]): 0.23 µM
- Activity (HCT-116 [25]): 44.7%
- Activity (HCT-116 [26]): 3.6%
- Activity (HCT-116 [27]): 19.9%
- selectivity ratio [2]: 54.4
- Activity (HCT-116 [10]): Active
- IC50 (CCD-841CoN): 12.5 µM
- Activity (HCT-116 [11]): Active
- Activity (HCT-116 [28]): 29.6%

Compound: O=C1/C(=C/c2ccccc2)CNC/C1=C\c1ccccc1
- IC50 (HCT-116 [1]): 3.5 µM
- selectivity ratio [2]: 2.7
- IC50 (CCD-841CoN): 9.45 µM

Compound: O=C1/C(=C/c2ccccc2F)CN(C(=O)C(Cl)Cl)C/C1=C\c1ccccc1F
- IC50 (HCT-116 [1]): 0.21 µM
- selectivity ratio [2]: 52.4
- IC50 (CCD-841CoN): 11 µM

Compound: O=C1/C(=C/c2ccc(Cl)cc2)CN(C(=O)C(Cl)Cl)C/C1=C\c1ccc(Cl)cc1
- IC50 (HCT-116 [1]): 0.13 µM
- selectivity ratio [2]: 115
- IC50 (CCD-841CoN): 14.9 µM

Compound: O=C1/C(=C/c2cccc(F)c2)CN(C(=O)C(Cl)Cl)C/C1=C\c1cccc(F)c1
- IC50 (HCT-116 [1]): 0.11 µM
- selectivity ratio [2]: 135
- IC50 (CCD-841CoN): 14.8 µM
